Test results reported in PMC9933483, “Tail-Approach-Based Design and Synthesis of Coumarin-Monoterpenes as Carbonic Anhydrase Inhibitors and Anticancer Agents” (ACS Omega, 2023).

Tests used:
[1] = test system: HEK293T cell line; experiment: Cell cytotoxicity, MTT assay; format: cell-based; details: Homo sapiens, HEK-293T, 24 h, healthy cell line
[2] = test system: PC-3 cell line; experiment: Cell cytotoxicity, MTT assay; format: cell-based; details: Homo sapiens, 24 h
[3] = test system: HT-29 cell line; experiment: Cell cytotoxicity, MTT assay; format: cell-based, human; details: Homo sapiens, HT-29; MTT, 24 h
[4] = test system: MCF-7 cell line; experiment: Cell cytotoxicity, MTT assay; format: cell-based, human
[5] = target: hCA IX (Homo sapiens, UniProt Q16790); experiment: biochemical

In the case of `Cc1ccc(C(C)C)c(OCc2cn(CCOc3ccc4ccc(=O)oc4c3)nn2)c1` [Compound 12, 7-(2-(4-((2-Isopropyl-5-methylphenoxy)methyl)-1H-1,2,3-triazol-1-yl)ethoxy)-2H-chromen-2-one], the IC50 [1] is reported as 107 ± 19.5 µM, the IC50 [2] is reported as 50.2 ± 23.7 µM and the IC50 [3] is reported as 48.5 ± 9.01 µM. The IC50 ([4]; Homo sapiens, MCF7, 24 h) was 45.7 ± 14.5 µM.
Work on `Cc1ccc(C(C)C)c(OCc2cn(CCCOc3ccc4ccc(=O)oc4c3)nn2)c1` [Compound 13, 7-(3-(4-((2-Isopropyl-5-methylphenoxy)methyl)-1H-1,2,3-triazol-1-yl)propoxy)-2H-chromen-2-one] yielded an IC50 [3] of 48.5 ± 8.73 µM.
Compound `Cc1ccc(C(C)C)c(OCc2cn(CCCCCCOc3ccc4ccc(=O)oc4c3)nn2)c1` [Compound 15, 7-((6-(4-((2-Isopropyl-5-methylphenoxy)methyl)-1H-1,2,3-triazol-1-yl)hexyl)oxy)-2H-chromen-2-one] has an IC50 [1] of 59.7 ± 12.3 µM, an IC50 [2] of 48.4 ± 14.4 µM and an IC50 [3] of 30.1 ± 10.2 µM. The IC50 ([4]; Homo sapiens, MCF7, 24 h) was 143 ± 58.5 µM.
`Cc1ccc(C(C)C)c(OCc2cn(CCCCCCCOc3ccc4ccc(=O)oc4c3)nn2)c1` [Compound 16, 7-((7-(4-((2-Isopropyl-5-methylphenoxy)methyl)-1H-1,2,3-triazol-1-yl)heptyl)oxy)-2H-chromen-2-one] gave an IC50 [1] of 142 ± 49.6 µM, an IC50 [2] of 167 ± 30.1 µM and an IC50 [3] of 21.6 ± 8.31 µM. The IC50 ([4]; Homo sapiens, MCF7, 24 h) was 73.1 ± 55.4 µM.
For `Cc1ccc(C(C)C)c(OCc2cn(CCCCCCCCCOc3ccc4ccc(=O)oc4c3)nn2)c1` [Compound 17, 7-((9-(4-((2-Isopropyl-5-methylphenoxy)methyl)-1H-1,2,3-triazol-1-yl)nonyl)oxy)-2H-chromen-2-one], the IC50 [1] was > 200 µM, the IC50 [2] was 12.5 ± 4.4 µM and the Ki [5] was 213 nM. For the same compound, the IC50 [3] was 28.5 ± 8.9 µM and the IC50 ([4]; Homo sapiens, MCF7, 24 h) was > 200 µM.
For `Cc1ccc(C(C)C)cc1OCc1cn(CCOc2ccc3ccc(=O)oc3c2)nn1` [Compound 20, 7-(2-(4-((5-Isopropyl-2-methylphenoxy)methyl)-1H-1,2,3-triazol-1-yl)ethoxy)-2H-chromen-2-one], the IC50 [3] was 25.9 ± 7.94 µM.
With `Cc1ccc(C(C)C)cc1OCc1cn(CCCOc2ccc3ccc(=O)oc3c2)nn1` [Compound 21, 7-(3-(4-((5-Isopropyl-2-methylphenoxy)methyl)-1H-1,2,3-triazol-1-yl)propoxy)-2H-chromen-2-one] the IC50 [3] was 39.4 ± 15.8 µM.
Work on `Cc1ccc(C(C)C)cc1OCc1cn(CCCCOc2ccc3ccc(=O)oc3c2)nn1` [Compound 22, 7-(4-(4-((5-Isopropyl-2-methylphenoxy)methyl)-1H-1,2,3-triazol-1-yl)butoxy)-2H-chromen-2-one] yielded an IC50 [3] of 37.4 ± 12.1 µM.
In the case of `C=CCc1ccc(OCc2cn(CCCCCCOc3ccc4ccc(=O)oc4c3)nn2)c(OC)c1` [Compound 31, 7-((6-(4-((4-Allyl-2-methoxyphenoxy)methyl)-1H-1,2,3-triazol-1-yl)hexyl)oxy)-2H-chromen-2-one], the IC50 [1] is reported as 15.2 ± 1.06 µM, the IC50 [2] is reported as > 200 µM and the IC50 [3] is reported as 45.2 ± 13.1 µM. It also gave an IC50 ([4]; Homo sapiens, MCF7, 24 h) of 16.8 ± 9.71 µM.
Work on `CC1CCC(C(C)C)C(OCc2cn(CCOc3ccc4ccc(=O)oc4c3)nn2)C1` (stereo not shown) [Compound 36, 7-(2-(4-(((2-isopropyl-5-methylcyclohexyl)oxy)methyl)-1H-1,2,3-triazol-1-yl)ethoxy)-2H-chromen-2-one] yielded a melting point of 122 to 123 °C and an IC50 [3] of 38.2 ± 12.1 µM.
`CC1CCC(C(C)C)C(OCc2cn(CCCCCCOc3ccc4ccc(=O)oc4c3)nn2)C1` (stereo not shown) [Compound 39, 7-((6-(4-(((2-Isopropyl-5-methylcyclohexyl)oxy)methyl)-1H-1,2,3-triazol-1-yl)hexyl)oxy)-2H-chromen-2-one] gave an IC50 [3] of 65.6 ± 24.2 µM.
Work on `CC1CCC(C(C)C)C(OCc2cn(CCCCCCCOc3ccc4ccc(=O)oc4c3)nn2)C1` (stereo not shown) [Compound 40, 7-((7-(4-(((2-Isopropyl-5-methylcyclohexyl)oxy)methyl)-1H-1,2,3-triazol-1-yl)heptyl)oxy)-2H-chromen-2-one] yielded an IC50 [3] of 54.8 ± 19.1 µM.
In the case of `CC1CCC(C(C)C)C(OCc2cn(CCCCCCCCCOc3ccc4ccc(=O)oc4c3)nn2)C1` (stereo not shown) [Compound 41, 7-((9-(4-(((2-Isopropyl-5-methylcyclohexyl)oxy)methyl)-1H-1,2,3-triazol-1-yl)nonyl)oxy)-2H-chromen-2-one], the Ki [5] is reported as 204 nM and the IC50 [3] is reported as 44.7 ± 15.1 µM.
Compound `CC1CCC(C(C)C)C(OCc2cn(CCCCCCCCCCOc3ccc4ccc(=O)oc4c3)nn2)C1` (stereo not shown) [Compound 42, 7-((10-(4-(((2-Isopropyl-5-methylcyclohexyl)oxy)methyl)-1H-1,2,3-triazol-1-yl)decyl)oxy)-2H-chromen-2-one] has an IC50 [1] of 83.2 ± 28.1 µM, an IC50 [2] of 39.7 ± 17 µM and a Ki [5] of 1.9 nM. The IC50 [3] was 32.9 ± 8.54 µM and the IC50 ([4]; Homo sapiens, MCF7, 24 h) was > 200 µM.
With `Cc1ccc(C(C)C)c(OCCOc2ccc3ccc(=O)oc3c2)c1` [Compound 44, 7-(2-(2-Isopropyl-5-methylphenoxy)ethoxy)-2H-chromen-2-one] the melting point was 181 to 182 °C and the IC50 [3] was 55.6 ± 4.91 µM.
With `Cc1ccc(C(C)C)c(OCCCOc2ccc3ccc(=O)oc3c2)c1` [Compound 45, 7-(3-(2-Isopropyl-5-methylphenoxy)propoxy)-2H-chromen-2-one] the IC50 [1] was 43.3 ± 5.43 µM, the IC50 [2] was > 80 µM and the Ki [5] was 192 nM. The IC50 [3] was > 200 µM and the IC50 ([4]; Homo sapiens, MCF7, 24 h) was > 200 µM.
With `Cc1ccc(C(C)C)c(OCCCCOc2ccc3ccc(=O)oc3c2)c1` [Compound 46, 7-(4-(2-Isopropyl-5-methylphenoxy)butoxy)-2H-chromen-2-one] the IC50 [1] was > 80 µM, the IC50 [2] was > 80 µM and the Ki [5] was 82.4 nM. For the same compound, the IC50 [3] was > 80 µM and the IC50 ([4]; Homo sapiens, MCF7, 24 h) was > 200 µM.
For `Cc1ccc(C(C)C)c(OCCCCCCOc2ccc3ccc(=O)oc3c2)c1` [Compound 47, 7-((6-(2-Isopropyl-5-methylphenoxy)hexyl)oxy)-2H-chromen-2-one], the IC50 [1] was > 80 µM, the IC50 [2] was 29.1 ± 6.02 µM and the Ki [5] was 117 nM. For the same compound, the IC50 [3] was > 80 µM and the IC50 ([4]; Homo sapiens, MCF7, 24 h) was 18.4 ± 2.63 µM.
For `Cc1ccc(C(C)C)c(OCCCCCCCOc2ccc3ccc(=O)oc3c2)c1` [Compound 48, 7-((7-(2-Isopropyl-5-methylphenoxy)heptyl)oxy)-2H-chromen-2-one], the Ki [5] was 36.8 nM and the IC50 [3] was > 200 µM.
With `Cc1ccc(C(C)C)c(OCCCCCCCCCOc2ccc3ccc(=O)oc3c2)c1` [Compound 49, 7-((9-(2-Isopropyl-5-methylphenoxy)nonyl)oxy)-2H-chromen-2-one] the Ki [5] was 123 nM and the IC50 [3] was > 200 µM.
In the case of `Cc1ccc(C(C)C)c(OCCCCCCCCCCOc2ccc3ccc(=O)oc3c2)c1` [Compound 50, 7-((10-(2-Isopropyl-5-methylphenoxy)decyl)oxy)-2H-chromen-2-one], the IC50 [3] is reported as > 200 µM.
`Cc1ccc(C(C)C)c(OCCCCCCCCCCCCOc2ccc3ccc(=O)oc3c2)c1` [Compound 51, 7-((12-(2-Isopropyl-5-methylphenoxy)dodecyl)oxy)-2H-chromen-2-one] showed an IC50 [1] of 50.1 ± 15.7 µM, an IC50 [2] of 62.8 ± 23.7 µM and a Ki [5] of 38.3 nM. The IC50 [3] was > 200 µM and the IC50 ([4]; Homo sapiens, MCF7, 24 h) was 19.6 ± 3.14 µM.
`Cc1ccc(C(C)C)cc1OCCOc1ccc2ccc(=O)oc2c1` [Compound 52, 7-(2-(5-Isopropyl-2-methylphenoxy)ethoxy)-2H-chromen-2-one] showed a melting point of 172 to 173 °C and an IC50 [3] of 74.2 ± 6.48 µM.
With `Cc1ccc(C(C)C)cc1OCCCOc1ccc2ccc(=O)oc2c1` [Compound 53, 7-(3-(5-Isopropyl-2-methylphenoxy)propoxy)-2H-chromen-2-one] the IC50 [1] was > 80 µM, the IC50 [2] was > 200 µM and the Ki [5] was 303 nM. The IC50 [3] was > 80 µM and the IC50 ([4]; Homo sapiens, MCF7, 24 h) was 30.8 ± 9.23 µM.
In the case of `Cc1ccc(C(C)C)cc1OCCCCCCOc1ccc2ccc(=O)oc2c1` [Compound 55, 7-((6-(5-Isopropyl-2-methylphenoxy)hexyl)oxy)-2H-chromen-2-one], the IC50 [1] is reported as > 80 µM, the IC50 [2] is reported as 48.3 ± 14.1 µM and the Ki [5] is reported as 36.2 nM. The IC50 [3] was 63.29 ± 0.57 µM and the IC50 ([4]; Homo sapiens, MCF7, 24 h) was 16.4 ± 2.91 µM.
For `Cc1ccc(C(C)C)cc1OCCCCCCCOc1ccc2ccc(=O)oc2c1` [Compound 56, 7-((7-(5-Isopropyl-2-methylphenoxy)heptyl)oxy)-2H-chromen-2-one], the IC50 [1] was > 80 µM, the IC50 [2] was 24.4 ± 4.12 µM and the IC50 [3] was > 80 µM. For the same compound, the IC50 ([4]; Homo sapiens, MCF7, 24 h) was 8.26 ± 1.28 µM.
In the case of `Cc1ccc(C(C)C)cc1OCCCCCCCCCOc1ccc2ccc(=O)oc2c1` [Compound 57, 7-((9-(5-Isopropyl-2-methylphenoxy)nonyl)oxy)-2H-chromen-2-one], the IC50 [3] is reported as > 200 µM.
`C=CCc1ccc(OCCCCOc2ccc3ccc(=O)oc3c2)c(OC)c1` [Compound 62, 7-(4-(4-Allyl-2-methoxyphenoxy)butoxy)-2H-chromen-2-one] gave an IC50 [1] of 64.7 ± 20.1 µM, an IC50 [2] of 45.5 ± 26.5 µM and a Ki [5] of 31.3 nM. The IC50 [3] was > 80 µM and the IC50 ([4]; Homo sapiens, MCF7, 24 h) was 11.3 ± 3.61 µM.
In the case of `C=CCc1ccc(OCCCCCCCCCCCCOc2ccc3ccc(=O)oc3c2)c(OC)c1` [Compound 67, 7-((12-(4-Allyl-2-methoxyphenoxy)dodecyl)oxy)-2H-chromen-2-one], the IC50 [3] is reported as > 80 µM.
In the case of `CC1CCC(C(C)C)C(OCCOc2ccc3ccc(=O)oc3c2)C1` (stereo not shown) [Compound 68, 7-(2-((2-Isopropyl-5-methylcyclohexyl)oxy)ethoxy)-2H-chromen-2-one], the IC50 [3] is reported as 40.7 ± 7.5 µM.
With `CC1CCC(C(C)C)C(OCCCOc2ccc3ccc(=O)oc3c2)C1` (stereo not shown) [Compound 69, 7-(3-((2-Isopropyl-5-methylcyclohexyl)oxy)propoxy)-2H-chromen-2-one] the IC50 [1] was 50 ± 8.43 µM, the IC50 [2] was 41.4 ± 14.9 µM and the Ki [5] was 34.1 nM. The IC50 [3] was 12.1 ± 1.94 µM and the IC50 ([4]; Homo sapiens, MCF7, 24 h) was 5.86 ± 1.22 µM.
`CC1CCC(C(C)C)C(OCCCCOc2ccc3ccc(=O)oc3c2)C1` (stereo not shown) [Compound 70, 7-(4-((2-Isopropyl-5-methylcyclohexyl)oxy)butoxy)-2H-chromen-2-one] gave an IC50 [1] of 63.5 ± 11.4 µM, an IC50 [2] of 24.8 ± 5.35 µM and a Ki [5] of 142 nM. For the same compound, the IC50 [3] was 14.7 ± 2.81 µM, the IC50 ([4]; 24 h) was 4.53 ± 1.06 µM and the IC50 ([4]; Homo sapiens, MCF7, 24 h) was 7.53 µM.
`CC1CCC(C(C)C)C(OCCCCCCOc2ccc3ccc(=O)oc3c2)C1` (stereo not shown) [Compound 71, 7-((6-((2-Isopropyl-5-methylcyclohexyl)oxy)hexyl)oxy)-2H-chromen-2-one] gave an IC50 [1] of 56.6 ± 10.5 µM, an IC50 [2] of 36 ± 9.49 µM and an IC50 [3] of 18.6 ± 3.39 µM. It also gave an IC50 ([4]; Homo sapiens, MCF7, 24 h) of 30.7 ± 7.04 µM.
In the case of `COc1cccc2c1C(=O)c1c(O)c3c(c(O)c1C2=O)C[C@@](O)(C(=O)CO)C[C@@H]3O[C@H]1C[C@H](N)[C@H](O)[C@H](C)O1` [Dox, doxorubicin, reference compound], the IC50 [1] is reported as 2.03 ± 0.12 µM, the IC50 [2] is reported as 4.48 ± 1.08 µM and the IC50 [3] is reported as 7.41 ± 1.9 µM. For the same compound, the IC50 ([4]; Homo sapiens, MCF7, 24 h) was 0.64 ± 0.11 µM.
